What was measured:
Arachis hypogaea = assay: Growth-regulating action, postemergence, greenhouse (Example 35, Table 1); format: in vivo; settings: for growth height relative: control 100
Source text: (§1) The vessels used for the experiments were plastic pots having a volume of 1,130 cm^3 (Table A) or paraffined paper cups having a volume of 170 cm^3 (Table B). The pots and cups were filled with a sandy loam. The seeds of the test plants-separated by species-were sown shallow. Preemergence treatment (soil treatment) was effected immediately after sowing and before germination of the seeds. Seeds lying on the surface came into contact with the active ingredients. Postemergence treatment (leaf treatment) took place at an average growth height of the plants (depending on the rate of growth) of from 6 to 10 cm. The substances were suspended, emulsified or dissolved in water as diluent and applied by means of fine nozzles. The vessels were kept in the greenhouse in a temperature range of 12° C. to 25° C., and were regularly sprinkler irrigated for the duration of the experiment. The observation period was 6 to 8 weeks.
(§2) Further experiments were carried out in the greenhouse under the condition described in Example 11. […] As the plants which were examined liked the warmth (Eupghorbia geniculate, Arachis hypogaea, Cynodon dactylon), they were kept at from 20°-30° C. Cynodon dactylon from seed was cut once and the young growth treated postemergence.

Cynodon dactylon = assay: as above; format: in vivo; settings: for growth height relative: control 100
Source text: as §1, §2

grass or lawns = assay: Action on grass or lawns (Example 13); format: in vivo; settings: for First cutting, dry substance / First cutting, growth height: 19 days after treatment; for First cutting, dry substance relative / First cutting, growth height relative: control 100; for Observations (color): control normal green
Source text: Lawn seed of the standard mixture Agrostis tenius (10%), Cynosurus cristatus (10%), Festuca rubra (15%), Lolium perenne (35%) and Poa praetensis (30%) was sown in a loam in large pots. The soil was fertilized with 1.5 g N as ammonium nitrate and 1 g P2 O5 as secondary potassium phosphate. After the grass had been cut twice, it was sprayed in conventional manner at a height of 4 cm with the active ingredients at various application rates. 19 days after treatment the growth height and dry substance content were determined. The treated grass was much shorter than the control, and produced a correspondingly lower amount of dry substance.
The prior art compound used for comparison purposes was maleic hydrazide (M; German 815,192).

soybeans = assay: Soybeans in a vegetation experiment in sandy loam (Example 19); format: in vivo, soybean (Gieso variety); settings: for Growth height: 4 weeks; for response vs control in vivo at 3000 g/ha / response vs control in vivo at 6000 g/ha: control 100
Protocol: Soybean plants of the Gieso variety were grown in a neutral sandy loam. Fertilization took place at the time of sowing, with 0.5 g N as ammonium nitrate and 1.0 g P2 O5 as secondary potassium phosphate. […]
After 4 weeks, the treated plants were much shorter than the control, and looked more compact as a result of the different angle of the leaves. The prior art compound used for comparison purposes was 2,3,5-triiodobenzoic acid (T; U.S. Pat. No. 2,978,838).

oats = assay: Growth height of oats, greenhouse (Example 10); format: in vivo, oats (Flamingskrone); settings: for Plant height relative: control 100
Source text: In the greenhouse, the four cereals wheat ("Opal" variety), rye ("Petkuser"), barley ("Villa") and oats ("Flamingskrone") were sown in plastic dishes 11.5 cm in diameter in a sandy loam adequately supplied with nutrients. The active ingredients were applied at various rates to the soil and to the leaves. When applied to the soil, the active ingredient were sprayed onto the surface of the soil on the day of sowing; in the case of leaf treatment, the leaves were sprayed in the usual manner at a growth height of the plants of 10 cm. During the 18 day growth period, the treated plants grew much more slowly than the untreated control, a fact later confirmed by measurements of the stem length. Measurements were taken of 100 plants from each series.
The prior art agent used for comparison purposes was N-2-chloroethyl-N,N,N-trimethylammonium chloride (CCC; German Printed Application DAS No. 1,294,734).

[1] = Glycine max, 672 h, 3.0 kg/ha, read-out: Growth height relative
[2] = Glycine max, 672 h, 6.0 kg/ha, read-out: Growth height relative
[3] = Glycine max, 672 h, read-out: Growth height relative

## CN(C)NC(=O)CCC(=O)O [drawing 437, reference compound]
Arachis hypogaea; 0.25 kg/ha
  Growth height: 9 cm
  growth height relative: 56
Arachis hypogaea; 0.5 kg/ha
  Growth height: 8 cm
  growth height relative: 50
Arachis hypogaea; 1.0 kg/ha
  Growth height: 7 cm
  growth height relative: 44
Arachis hypogaea; 2.0 kg/ha
  Growth height: 7 cm
  growth height relative: 44
Cynodon dactylon; 0.5 kg/ha
  Growth height: 12 cm
  growth height relative: 109
Cynodon dactylon; 1.0 kg/ha
  Growth height: 12 cm
  growth height relative: 109
Cynodon dactylon; 2.0 kg/ha
  Growth height: 9 cm
  growth height relative: 82

## Brc1ccc(N2N=NC3C4CC(C5N=NC45)C32)cc1 (centres unmarked) [drawing 379]
Grass or lawns; 0.25 kg/ha
  First cutting, dry substance: 12.8 g
  First cutting, growth height: 25.0 cm
  First cutting, dry substance relative: 102.4
  First cutting, growth height relative: 98.0
  Observations (color): normal green
Grass or lawns; 0.5 kg/ha
  First cutting, dry substance: 11.4 g
  First cutting, growth height: 24.0 cm
  First cutting, dry substance relative: 91.2
  First cutting, growth height relative: 94.1
Grass or lawns; 1.0 kg/ha
  First cutting, dry substance: 8.4 g
  First cutting, growth height: 21.5 cm
  First cutting, dry substance relative: 67.2
  First cutting, growth height relative: 84.2
Grass or lawns; 2.0 kg/ha
  First cutting, dry substance: 6.3 g
  First cutting, growth height: 18.0 cm
  First cutting, dry substance relative: 50.4
  First cutting, growth height relative: 70.5
Grass or lawns; 2.0 kg/ha, control 1.33
  First cutting, chlorophyll content: 1.40 g Ca + b/100 g TS
Grass or lawns; 4.0 kg/ha
  First cutting, dry substance: 4.1 g
  First cutting, growth height: 12.5 cm
  First cutting, dry substance relative: 32.8
  First cutting, growth height relative: 49.0

## Brc1ccc(N2N=NC3C4CC(C5N=NC45)C32)cc1 (centres unmarked) [drawing 397]
soybeans; 3.0 kg/ha, soil
  Growth height: 14.0 cm
soybeans; 6.0 kg/ha, soil
  Growth height: 14.0 cm
soybeans; [1]
  response vs control in vivo at 3000 g/ha: 60.9%
soybeans; [2]
  response vs control in vivo at 6000 g/ha: 60.9%

## Brc1cccc(N2N=NC3C4CC(C5N=NC45)C32)c1 (centres unmarked) [drawing 399]
soybeans; 3.0 kg/ha, soil
  Growth height: 17.0 cm
soybeans; 6.0 kg/ha, soil
  Growth height: 16.0 cm
soybeans; [1]
  response vs control in vivo at 3000 g/ha: 73.9%
soybeans; [2]
  response vs control in vivo at 6000 g/ha: 69.6%

## c1cc2sncc2cc1N1C2C3CC(C4N=NC34)C21 (centres unmarked)
Arachis hypogaea; 0.5 kg/ha
  Growth height: 13 cm
  growth height relative: 81
Arachis hypogaea; 1.0 kg/ha
  Growth height: 12 cm
  growth height relative: 75
Arachis hypogaea; 2.0 kg/ha
  Growth height: 9 cm
  growth height relative: 56
Cynodon dactylon; 0.5 kg/ha
  Growth height: 4 cm
  growth height relative: 36
Cynodon dactylon; 1.0 kg/ha
  Growth height: 4 cm
  growth height relative: 36
Cynodon dactylon; 2.0 kg/ha
  Growth height: 4 cm
  growth height relative: 36

## Clc1ccc(N2N=NC3C4CC(C5NNC45)C32)cc1 (centres unmarked) [drawing 395]
soybeans; 3.0 kg/ha, soil
  Growth height: 13.5 cm
soybeans; 6.0 kg/ha, soil
  Growth height: 12.5 cm
soybeans; [1]
  response vs control in vivo at 3000 g/ha: 58.7%
soybeans; [2]
  response vs control in vivo at 6000 g/ha: 54.4%

## Clc1ccc(N2C3C4CC(C5N=NC45)C32)cc1Cl (centres unmarked)
Arachis hypogaea; 0.5 kg/ha
  Growth height: 14 cm
  growth height relative: 87
Arachis hypogaea; 1.0 kg/ha
  Growth height: 14 cm
  growth height relative: 87
Arachis hypogaea; 2.0 kg/ha
  Growth height: 10 cm
  growth height relative: 62
Cynodon dactylon; 0.5 kg/ha
  Growth height: 7 cm
  growth height relative: 64
Cynodon dactylon; 1.0 kg/ha
  Growth height: 6 cm
  growth height relative: 54
Cynodon dactylon; 2.0 kg/ha
  Growth height: 6 cm
  growth height relative: 54

## O=C(O)c1cc(I)cc(I)c1I [T, 2,3,5-triiodobenzoic acid, reference compound]
soybeans; 0.125 kg/ha
  Growth height: 23.5 cm
soybeans; 0.375 kg/ha
  Growth height: 25.0 cm
soybeans; 0.750 kg/ha
  Growth height: 23.0 cm
soybeans; [3]
  response vs control in vivo at 125 g/ha: 102%
  response vs control in vivo at 375 g/ha: 109%
  response vs control in vivo at 750 g/ha: 100%

## Brc1ccccc1N1N=NC2C3CC(C4N=NC34)C21 (centres unmarked) [drawing 398]
soybeans; 3.0 kg/ha, soil
  Growth height: 21.0 cm
soybeans; 6.0 kg/ha, soil
  Growth height: 17.0 cm
soybeans; [1]
  response vs control in vivo at 3000 g/ha: 91.3%
soybeans; [2]
  response vs control in vivo at 6000 g/ha: 73.9%

## c1csc(N2C3C4CC(C5N=NC45)C32)n1 (centres unmarked)
Cynodon dactylon; 0.5 kg/ha
  Growth height: 8 cm
  growth height relative: 73
Cynodon dactylon; 1.0 kg/ha
  Growth height: 7 cm
  growth height relative: 64
Cynodon dactylon; 2.0 kg/ha
  Growth height: 6 cm
  growth height relative: 54

## Clc1ccc(N2N=NC3C4CC(C5N=NC45)C32)cc1 (centres unmarked) [drawing 393]
soybeans; 3.0 kg/ha, soil
  Growth height: 15.0 cm
soybeans; 6.0 kg/ha, soil
  Growth height: 14.0 cm
soybeans; [1]
  response vs control in vivo at 3000 g/ha: 65.2%
soybeans; [2]
  response vs control in vivo at 6000 g/ha: 60.9%

## FC(F)(F)c1ccc(Cl)c(N2N=NC3C4CC(C5N=NC45)C32)c1 (centres unmarked) [drawing 396]
soybeans; 3.0 kg/ha, soil
  Growth height: 17.5 cm
soybeans; 6.0 kg/ha, soil
  Growth height: 13.5 cm
soybeans; [1]
  response vs control in vivo at 3000 g/ha: 76.1%
soybeans; [2]
  response vs control in vivo at 6000 g/ha: 58.7%

## Clc1ccc(N2N=NC3C4CC(C5N=NC45)C32)cc1 (centres unmarked) [drawing 378]
Grass or lawns; 0.25 kg/ha
  First cutting, dry substance: 10.7 g
  First cutting, growth height: 26.0 cm
  First cutting, dry substance relative: 85.6
  First cutting, growth height relative: 101.9
  Observations (color): normal green
Grass or lawns; 0.5 kg/ha
  First cutting, dry substance: 8.6 g
  First cutting, growth height: 24.0 cm
  First cutting, dry substance relative: 68.8
  First cutting, growth height relative: 94.1
  Observations (color): normal green
Grass or lawns; 1.0 kg/ha
  First cutting, dry substance: 7.0 g
  First cutting, growth height: 19.0 cm
  First cutting, dry substance relative: 56.0
  First cutting, growth height relative: 74.5
  Observations (color): normal green
Grass or lawns; 2.0 kg/ha
  First cutting, dry substance: 4.8 g
  First cutting, growth height: 16.0 cm
  First cutting, dry substance relative: 38.4
  First cutting, growth height relative: 62.7
  Observations (color): dark green
Grass or lawns; 4.0 kg/ha
  First cutting, dry substance: 3.1 g
  First cutting, growth height: 10.5 cm
  First cutting, dry substance relative: 24.8
  First cutting, growth height relative: 41.1
  Observations (color): dark green

## Clc1cccc(N2N=NC3C4CC(C5N=NC45)C32)c1 (centres unmarked) [drawing 394]
soybeans; 3.0 kg/ha, soil
  Growth height: 17.5 cm
soybeans; 6.0 kg/ha, soil
  Growth height: 14.5 cm
soybeans; [1]
  response vs control in vivo at 3000 g/ha: 76.1%
soybeans; [2]
  response vs control in vivo at 6000 g/ha: 63%

## Brc1ccc(N2N=NC3C4CC(C5N=NC45)C32)cc1 (centres unmarked) [drawing 359]
oats; leaf, 0.125 kg/ha
  Plant height: 25.5 cm
  Plant height relative: 91.1
oats; leaf, 0.5 kg/ha
  Plant height: 25.0 cm
  Plant height relative: 89.3
oats; leaf, 1.0 kg/ha
  Plant height: 22.5 cm
  Plant height relative: 80.4
oats; leaf, 2.0 kg/ha
  Plant height: 22.5 cm
  Plant height relative: 80.4
oats; leaf, 4.0 kg/ha
  Plant height: 22.0 cm
  Plant height relative: 78.6

## Brc1ccc(N2N=NC3C4CC(C5N=NC45)C32)cc1 (centres unmarked) [drawing 357]
oats; soil, 0.5 kg/ha
  Plant height: 28.0 cm
  Plant height relative: 100
oats; soil, 1.0 kg/ha
  Plant height: 26.5 cm
  Plant height relative: 94.6
oats; soil, 2.0 kg/ha
  Plant height: 24.5 cm
  Plant height relative: 87.5
oats; soil, 6.0 kg/ha
  Plant height: 15.5 cm
  Plant height relative: 55.4
